US20240299429A1, “PREVENTIVE AND THERAPEUTIC AGENT FOR URINARY TRACT INFECTION CONTAINING 1-DEOXYMANNOSE” (SUNUS CO., LTD., priority 2022, published 2024)
Read-outs that look alike come from different tables or passages of the source.

Assays:
Fim H lectin = Fim H lectin (Escherichia coli, UniProt P08191); conditions: read-out: dissociation constant (KD) against Fim H lectin (converted), cited from earlier work
[1] = Urinary recovery rate after oral administration; assay type: in vivo; conditions: urine; 1 g oral, human, up to eight hours after administration
Method: (§1) 1 g of 1-deoxymannose was dissolved in water to prepare a 20% w/w solution as a sample for oral administration. Urine was collected from six human subjects before administration of the sample. The total amount of sample was administered orally to each of the subjects, and the total amount of urine was collected one, two, three, four, six and eight hours after the administration. The urine collected at each of the points in time was subjected to volume measurement, and then filtered through a membrane filter with a pore size of 0.2 μm, followed by measurement of urinary 1-deoxymannose concentration by HPLC analysis.
The urinary recovery rate of 1-deoxymannose was determined by dividing the amount of recovered 1-deoxymannose, which was obtained from the collected urine volume and the urinary 1-deoxymannose concentration, by the dose. The urinary recovery rate is expressed by the following formula:
[formula] • Vn: Urine volume [ml] n hour (s) after administration • Cn: Urinary 1-deoxymannose concentration [mg/ml] n hour (s) after administration • M: Dose of 1-deoxymannose (=1000 mg)

[2] = Urine volume after oral administration; assay type: in vivo; conditions: 1 g oral, human, all points in time up to eight hours
Method: as §1
Mannose, instead of 1-deoxymannose, was orally administered, followed by collection of urine, in the same manner as in Example 1.
In FIG. 2, the vertical axis indicates the percentage of the urine volume after administration of 1-deoxymannose in Example 1 relative to the urine volume after administration of mannose in Comparative Example 1 taken as 100%, at the respective points in time.

[3] = Urinary concentration after oral administration to human subjects (HPLC); assay type: in vivo; conditions: 1 g oral
Method: HPLC devices: PU2089 plus, AS2055 plus and RI2031 plus (series number) manufactured by JASCO Corporation; MODEL 556 manufactured by GL Sciences Inc. • Columns: MITSUBISHI MCI GEL CK08S; two columns coupled together • Oven temperature: 60° C. • Eluent: Water • Detector: Differential refractometer • Flow rate: 1 ml/minute • Injection volume: 100 μL
The determination of 1-deoxymannose was carried out using a calibration curve produced by using the 1-deoxymannose prepared as above. The determination of mannose was carried out using a calibration curve produced by using special grade mannose as a reagent.
as §1
Mannose, instead of 1-deoxymannose, was orally administered, followed by collection of urine, in the same manner as in Example 1. […]

[4] = tested on: Escherichia coli (NBRC 3301); assay: Utilization of sugars by Escherichia coli (turbidity in M9 minimal medium); assay type: cell-based; conditions: 1% sugar in M9 minimal medium, 37° C., compared with mannose and glucose
Method: In order to evaluate the utilization of 1-deoxymannose by Escherichia coli (NBRC 3301), the following experiment was conducted.
M9 minimal medium (obtained by adding MgSO4 and CaCl2 to Difco™ M9 Minimal Salt) containing 2 ml of 1% glucose was used. Escherichia coli (NBRC 3301) was subjected to shaking at 37° C. for 17 hours to prepare a culture solution. 10 μL of the culture solution was added to 2 ml of M9 minimal media containing 1%1-deoxymannose, 1% mannose, and 1% glucose, respectively, followed by shaking culture at 37° C. During culture, 100 μL of the culture solution was serially sampled and measured for its turbidity (600 nm) using a cell with an optical path length of 1 cm. The growth of Escherichia coli was evaluated based on increased turbidity. The results of the measurement are shown in FIG. 3, in which Example 2, Comparative Example 2, and Comparative Example 3 correspond to the culture solution containing 1-deoxymannose, the culture solution containing mannose, and the culture solution containing glucose, respectively.

Sequence of Fim H lectin (P08191 22-300): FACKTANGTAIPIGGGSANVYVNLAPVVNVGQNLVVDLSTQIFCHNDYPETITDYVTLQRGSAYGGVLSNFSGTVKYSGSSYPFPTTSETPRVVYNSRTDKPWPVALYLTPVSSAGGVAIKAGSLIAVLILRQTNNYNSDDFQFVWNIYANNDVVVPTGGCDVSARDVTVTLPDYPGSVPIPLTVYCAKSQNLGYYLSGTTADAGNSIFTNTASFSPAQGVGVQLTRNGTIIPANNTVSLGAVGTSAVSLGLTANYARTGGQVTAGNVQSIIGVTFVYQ

## OC[C@H]1OC[C@@H](O)[C@@H](O)[C@@H]1O [1-deoxymannose, 1,5-anhydro-D-mannitol]
Fim H lectin; expressed as mass concentration
  Kd: 1.13 µM
Fim H lectin
  Kd: 1.13 µM
[1]
  dose excreted: 43.3 ± 9.03%
[2]
  urine volume versus mannose administration group: larger volume of urine
[3]; average of six subjects, two hours after administration
  highest urinary concentration: 2.12 mg/mL
[3]; six subjects, urine collected one to eight hours after administration, detection limit 0.1 mg/ml
  detection in urine: detected
[4]
  turbidity (600 nm) of Escherichia coli culture, growth: did not have increased turbidity
